Assay results reported in patent US10265288B2, “Methods and compositions for the treatment of proliferative disorders” (Beth Israel Deaconess Medical Center, Inc., priority 2011, dated 2019).
Where a SMILES comes first, the peptide text is derived from it. [ ]: non-standard residue; d: D form. pT = C[C@@H](OP(=O)(O)O)[C@H](N)C(=O)O; 2Nal = N[C@@H](Cc1ccc2ccccc2c1)C(=O)O; Bta = N[C@@H](Cc1csc2ccccc12)C(=O)O; Pip = O=C(O)[C@@H]1CCCCN1

Experiments:
Pin1 [1] = target: T1, Pin1 (Homo sapiens, UniProt Q13526); experiment: Pin1 inhibition by retinoids in a cell culture model; format: cell-based
T1 construct: We performed FP-HTS in a 384-well plate format with full length Pin1
T1 sequence (Q13526 whole entry): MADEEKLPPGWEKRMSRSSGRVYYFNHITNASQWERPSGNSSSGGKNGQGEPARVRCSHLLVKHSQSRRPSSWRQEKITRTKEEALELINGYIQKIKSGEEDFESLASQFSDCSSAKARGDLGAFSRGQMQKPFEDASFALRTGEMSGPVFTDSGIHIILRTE
Description: As trans-RA is selected as the current lead compound, it is important to identify the essential moiety of RAs on Pin1 interaction for further lead optimization. Many commercially available retinoids were tested for Pin1 inhibition. […] Other RA compounds that are metabolized to contain an end carboxylic group are also likely to be useful in treating proliferative disorders (FIG. 10D). In addition, compounds that modulate the retinoic acid receptor (FIGS. 10D and 11A and compounds listed in Table 1) are also likely to be useful in treating proliferative disorders.

Pin1 and DAPK1 = Pin1 and DAPK1 (Homo sapiens, UniProt Q13526); experiment: association between Pin1 and DAPK1 (competition); format: binding; settings: dose-dependent manner, trans being more potent
Pin1 and DAPK1, sequence (Q13526 whole entry): as above

Pin1 [2] = target: T1, Pin1; experiment: single-step fluorescence polarization-based displacement assay (FP-HTS); format: binding
Description: We used the FP-HTS with a 5 nM probe and 200 nM Pin1 to conduct a pilot screen on a selected set of chemical libraries.

Pin1 [3] = target: T1, Pin1; experiment: PPIase assay; format: biochemical; settings: dose-dependent manner
Description: (§1) We used the FP-HTS with a 5 nM probe and 200 nM Pin1 to conduct a pilot screen on a selected set of chemical libraries. We obtained the resulting potential positive hits and grouped them into 3 classes according to the Z-score, which is folds of standard deviation below the mean. […] 1) cis-RA is not listed in promiscuous inhibitor databases 2) all-trans retinoic acid (trans-RA), the pairing compound of cis-RA, is currently used as oral prescription for patients with acute promyelocytic leukemia […]; 3) both cis-RA and trans-RAs are used as a medication in the phase II/III clinical trial for breast cancer, and more because of its ability to kill rapidly dividing cells; and 4) although it has been reported that RAs target on retinoic acid receptor (RAR), the exact mechanism of the anticancer action is unknown. As a result, we examined whether the anti-cancer effect of RAs depends on RAR in the breast cancer cells. […] In the PPIase assay, Pin1 activity was blocked by either cis- or trans-RA in a dose-dependent manner (FIG. 4).

T47D = experiment: cell viability; format: cell-based
Source text: (§2) This discrepancy between cell lines was correlated with the RAs' ability to suppress Pin1 expression. Pin1 level was decreased by treatment of RAs in drugs-responsive SKBR3 and T47D, but not in drugs-irresponsive normal cells, MCF10A (FIG. 7B), in which Pin1 target protein, cyclin D1, was served as biomarkers of in vivo Pin1 activity. […] To further confirm this premise, wild-type mouse embryonic fibroblast (WT MEF) and Pin1 knockout MEF (Pin1 KO MEF) were used to test trans-RA-mediated cell viability (FIGS. 9A-C). […] In addition, Pin1 KO MEF stably expressing WT Pin1, but not W34/K63A Pin1 mutant, enabled cells to re-sensitize trans-RA.

MCF10A = experiment: cell viability; format: cell-based; settings: normal cell line MCF10A
Source text: as §2

SKBR3 = experiment: cell viability; format: cell-based, human
Source text: as §2

WT MEF and Pin1 KO MEF = experiment: trans-RA-mediated cell viability in MEF; format: cell-based, mouse
Source text: as §2

[4] = test system: Pin1 K63A, S67E, R68/69A, H59A or S71E; experiment: trans-RA binding to Pin1 point mutants; settings: point mutations K63A
Description: as §1

breast cancer cells = experiment: cis-RA-mediated cell death with RARα knockdown; format: cell-based

Pin1 inhibition (Pin1 [1]) | association between Pin1 and DAPK1 (Pin1 and DAPK1) | Pin1 activity (Pin1 [3]) | IC50 (cell viability) (T47D) | IC50 (cell viability) (SKBR3) | Compound | cell viability (MCF10A) | further results
maintained Pin1 inhibition | – | – | – | – | CCCCCCCCc1ccc(-c2ccc(C(=O)O)cc2)cc1 [AC-55649] | – | –
maintained Pin1 inhibition | blocked | blocked | nano-molar range | nano-molar range | CC1=C(/C=C/C(C)=C/C=C/C(C)=C/C(=O)O)C(C)(C)CCC1 [trans-RA, (2E,4E,6E,8E)-3,7-dimethyl-9-(2,6,6-trimethylcyclohexen-1-yl)nona-2,4,6,8-tetraenoic acid] | remained unaffected | Pin1 inhibition in the FP assay (Pin1 [2]; compared with cis-RA): more prominent Pin1 inhibition than cis-RA; cell viability (WT MEF and Pin1 KO MEF; Pin1 KO MEF compared with WT MEF): more resistant; cell viability (WT MEF and Pin1 KO MEF; Pin1 KO MEF stably expressing WT Pin1): re-sensitize; trans-RA binding to Pin1 [4]: completely or significantly abolished
maintained Pin1 inhibition | blocked | blocked | nano-molar range | nano-molar range | CC1=C(/C=C/C(C)=C/C=C/C(C)=C\C(=O)O)C(C)(C)CCC1 [cis-RA, (2Z,4E,6E,8E)-3,7-dimethyl-9-(2,6,6-trimethylcyclohexen-1-yl)nona-2,4,6,8-tetraenoic acid] | remained unaffected | pilot screen hit class according to Z-score (Pin1 [2]; 5 nM probe and 200 nM Pin1): top strong chemical; Pin1 inhibition in the FP assay (Pin1 [2]; long-term incubation with Pin1): eventually catch up with trans-RA; rescue of cis-RA-mediated cell death (breast cancer cells): only partially rescue
– | – | – | – | – | C[C@@H](OP(=O)(O)O)[C@H](NC(=O)[C@@H](N)Cc1csc2ccccc12)C(=O)N1CCCC[C@H]1C(=O)N[C@@H](Cc1ccc2ccccc2c1)C(=O)O [pTide, Bth-L-phos.Thr-Pip-Nal] (H-[Bta][pT][Pip][2Nal]-OH; N-terminus and C-terminus assumed) | – | displacement of HF488 probe from Pin1 (Pin1 [2]): displaced

Compound | Pin1 inhibition (Pin1 [1]) | association between Pin1 and DAPK1 (Pin1 and DAPK1) | Pin1 activity (Pin1 [3]) | IC50 (cell viability) (T47D) | IC50 (cell viability) (SKBR3) | cell viability (MCF10A) | further results
COc1cc(C)c(/C=C/C(C)=C/C=C/C(C)=C/C(=O)O)c(C)c1C [acitretin] | maintained Pin1 inhibition | – | – | – | – | – | –
